These results are taken from US20200290950A1, “ALKAMIDE COMPOUNDS AND USES THEREOF” (NORTH CAROLINA STATE UNIVERSITY, priority 2017, published 2020).

The term inhibition denotes the percentage by which the read-out fell short of the control.

One assay has as its system RBL-2H3 cells. Briefly: β-Hexosaminidase release assay (Example 3). It is filed as cell-based, rat. On the procedure: FIGS. 21A-21D. The inhibition of degranulation is dependent on the length of the alkamide fatty acid chain. RBL-2H3 cells were plated overnight, stimulated with 1 μM A23187 (FIG. 21A) or 5 ng/mL DNP-BSA (FIG. 21B) for 1 h in the absence or presence of each compound. Graphs display the mean percent β-hex release. Data are presented as the mean of 4 experiments. Percent inhibition of degranulation of A23187 (FIG. 21C) or DNP-BSA (FIG. 21D) using data from A and B, respectively. *P<0.05, **P<0.01, ***P<0.001, one-way ANOVA with Dunnett's post hoc test compared to vehicle (A, B) or A15 (C, D).
RBL-2H3 cells (1.0×10^5 cells) were incubated with or without 0.1 μg/mL of IgE-DNP overnight in a 96 well plate at 37° C. with 5% CO2. The cells were washed with Tyrode's buffer and assayed with few modifications (Kuehn, Radinger, & Gilfillan, 2010). Briefly, IgE-DNP sensitized cells were stimulated 1 hour with 5 ng/mL of DNP-BSA in the absence or presence of each compound and incubated at 37° C. with 5% CO2. For experiments using only A23187 as the stimulant, cells were washed with Tyrode's buffer and stimulated 1 hour with 1 μM A23187 in the absence or presence of each compound and incubated at 37° C. with 5% CO2. The stimulated cells were centrifuged at 1200×g for 5 minutes. The supernatant or cell lysate (30 μL) was incubated with 3.4 mg/mL of p-NAG (10 μL) for 1 hour at 37° C. The reaction was terminated by addition of 0.2 M sodium carbonate (pH 10) and the absorbance was read at OD405 nm on a BioTek Synergy HT microplate reader. The total 3-hexosaminidase released from the cell was calculated as the difference between the OD of the supernatant and blank plus the difference between the OD of the lysate and blank. The percent β-hexosaminidase released from the cell was calculated as the difference between the OD of the supernatant and blank divided by the total β-hexosaminidase released from the cell multiplied by 100: ODsupernatant−ODblank/[(ODlysate−ODblank)+(ODsupernatant−ODblank)]*100.

In the next assay the test system is RAW 264.7 cells. The settings on record: LPS-stimulated RAW 264.7 cells, literature; cited from earlier work.
Assay [1] deals with bone marrow derived mast cells (BMMCs). Briefly: β-hexosaminidase degranulation assay, BMMCs. It is filed as cell-based. The following applies: Mus musculus, BMMC, A23187-stimulated BMMCs, 1 hr, read-out: maximum inhibition of release of β-hex. On the procedure: FIGS. 1A-1F. A15 inhibits BMMC and RBL-2H3 cell degranulation. The structure of alkamide A15 is shown with different functional groups and carbons in the fatty acid chain labeled (FIG. 1A). BMMCs were plated and stimulated 4 hrs later with 1 μM A23187 and the indicated concentrations of A15 or vehicle only. The percent degranulation was measured after 1 hr (FIG. 1B). RBL-2H3 cells were treated with A23187 and the percent degranulation was determined 1 hr later (FIG. 1C) or every 10 min over a 1 hr time course (FIG. 1D). RBL-2H3 cells were plated and incubated for 4 hrs before the media was aspirated and replaced with media containing 1 μg/mL IgE anti-DNP. Cells were incubated overnight and washed prior to stimulation. The percent degranulation from RBL-2H3 cells was calculated after stimulation with 50 ng/mL DNP-HSA in combination with the indicated concentrations of A15 or vehicle only after 1 hr (FIG. 1E). RBL-2H3 cells were stimulated for 1 hr in Tyrode's buffer before supernatants were collected and levels of histamine were measured using a competitive inhibition EIA kit (FIG. 1F). […]
RBL-2H3 cell and BMMC degranulation was measured using a β-hexosaminidase (β-hex) activity assay. […]

For the compound `CCCCCCC/C=C/C=C/C(=O)NCC(C)C` [A15, (2E,4E)-N-Isobutyldodeca-2,4-dienamide], the “percent inhibition of degranulation” value came to 27% in the assay with RBL-2H3 cells (5 ng/mL DNP-BSA, 1 hour) and 47% in the assay with RBL-2H3 cells (1 μM A23187, 1 hour). Moreover, the TNF-α production result with RAW 264.7 cells was “best inhibitors”. Besides, the inhibition at 100 µM in assay [1] was 83.5%.
